In US11471460B2, “Autophagy modulators for use in treating cancer” (The United States of America,as represented by the …, priority 2017, dated 2022):
“Also recorded” adds a separate entry of the source.

Columns and labels:
osteosarcoma U2OS cells [1] = test: U2OS cell proliferation; assay type: cell-based, human
From the text: (§1) These effects are dependent on the compound selected, its concentration and the length of time cells are exposed to the compound.
(§2) Cells were obtained from the American Type Culture Collection. BORCS5-KO HeLa cells have been described previously. Osteosarcoma U2OS were routinely seeded in 6-well plates (0.5×10^5 cells/well) and cultured in Dulbecco's Modified Eagle's medium supplemented with L-Glutamine, 4.5 g/L Glucose, Sodium Pyruvate, Phenol Red, and either heat-inactivated or normal 10% fetal calf serum at 37° C. in 5% CO2. Approximately 15-19 hours later, the indicated compound was added in 1:1000 dilutions. Results were the same using either heat-inactivated or normal fetal calf serum. Melanoma A375, embryonic kidney 293T and human foreskin fibroblast Hs27 cells were cultured in the same medium, except that cells were seeded into 12-well plates at 10^3 cells/well.

[2] = system: breast adenocarcinoma cells; test: Viability of breast adenocarcinoma cells; assay type: cell-based; conditions: Homo sapiens; breast adenocarcinoma cells; read-out: EC50
Method: (§3) FIG. 18 summarizes results from 13 human cell lines. All cells were seeded at the same cell density in a rich culture medium and assayed under identical conditions. Compound 1 efficacy is the ratio of cell viability with compound 1 to cell viability with chloroquine derivatives.

U2OS cells = test: Tandem sensor RFP-GFP-LC3B: fraction of yellow (neutral pH) puncta; assay type: cell-based, human; conditions: 1 μM, 4 hrs
Method: Confocal microscopic images are shown in FIG. 12A of U2OS cells expressing a modified tandem sensor RFP-GFP-tagged LC3B protein in which the green signal from a mutated GFP was suppressed in an acidic environment, with little or no effect on the red signal from RFP. Thus, autophagosomes with neutral pH would fluoresce yellow, whereas autolysosomes with acidic pH would fluoresce red. These cells were treated with either vehicle or 1 μM compound 1 for 4 hrs. The fraction of yellow puncta, representing autophagosomes with a neutral pH, was quantified in 50 cells from each of three independent experiments (mean±SEM; Student's t-test, p<0.0001) as shown in FIG. 12B. The fraction of yellow puncta increased 4-fold in the presence of compound 1 (right side graph).
To determine whether the accumulation of autophagosomes resulted from induction of autophagy or from disruption of autophagic flux, cells were transfected with a vector expressing a modified tandem sensor RFP-GFP-tagged LC3B protein in which the green signal from a mutated GFP was suppressed in an acidic environment, with little or no effect on the red signal from RFP^41. Therefore, in merged images, only red puncta indicated acidic autolysosomes; yellow puncta indicated either autophagosomes or non-acidic autolysosomes. […]

melanoma A375 tumors [3] = test: Expansion of preformed A375 tumors in outbred nude mice; assay type: in vivo
Method: Melanoma A375 cells were inoculated subcutaneously into outbred nude mice on day 0 (broad arrow). Intraperitoneal injections (arrows) of vehicle (open circles), 20 mg compound 1 (grey circles), or 40 mg compound 1/kg (solid circle) of mouse weight were administered daily beginning with day 7 when palpable tumors were present. Each group contained three mice. SEMs are indicated. Error bars indicate the SEM for 6 tumors.
The genetic diversity of human populations is greater than the genetic diversity of inbred animals. Therefore, the experiment in FIG. 20 with inbred nude mice was repeated with outbred nude mice.

melanoma A375 cells [4] = test: Tumor formation by pretreated A375 cells in nude mice; assay type: in vivo
From the text: Viability was quantified by trypan blue dye exclusion method. The images confirmed the presence of cytoplasmic vacuolization occurred only in the compound 1 treated cells. […] The left flank received cells pretreated with vehicle and the right flank received cells pretreated with compound 1. At 27 days later, mice were photographed, and tumors excised. […] Error bars indicate the SEM for 5 tumors.
To determine whether or not compound 1 could inhibit progression of a tumor that arose from autophagy-dependent cancer cells, melanoma A375 cells were pretreated with either vehicle or compound 1 and then assayed for their ability to produce a tumor. Pretreatment consisted of culturing A375 cells for 8 hours with 10 μM compound 1. The cells were then recovered by trypsinization and their viability confirmed by trypan blue exclusion. […] The cells were then inoculated subcutaneously into the flanks of immuno-compromised mice.

embryonic kidney cells = test: Viability of embryonic kidney cells; assay type: cell-based; conditions: Homo sapiens; embryonic kidney cells; read-out: EC50
Method: as §3
as §2, with “Results were the same using either heat-inactivated or normal fetal calf serum.” left out

osteosarcoma U2OS cells [5] = test: U2OS cell viability (cellular ATP); assay type: cell-based, human
From the text: as §1

melanoma A375 cells [6] = test: A375 cell proliferation (crystal violet plate assay); assay type: cell-based, human
melanoma A375 cells [7] = test: A375 cell viability (CellTiter-Glo ATP, trypan blue live cells); assay type: cell-based, human; conditions: 0.1 μM
Method: To reveal viability, cells were seeded into 96-well plates (1,000 cells/well), and the indicated compound was added the following day. Cells were cultured for four days before quantification of total cellular ATP. […] In separate 12-well plates, attached cells were collected by trypsinization, combined with unattached cells, and stained with trypan blue to identify dead cells. Vehicle was plotted as 0.001 μM compound in order to apply a logarithmic scale. Data were plotted as the mean±SEM for three independent experiments.
as §2, with “Results were the same using either heat-inactivated or normal fetal calf serum.” left out

[8] = system: human foreskin fibroblasts; test: Proliferation/viability of human foreskin fibroblasts; assay type: cell-based; conditions: Fibroblast; human foreskin fibroblasts; read-out: EC50
Method: Concentration of each compound in the plate assay is indicated below the compound 1 plate.
as §2, with “Results were the same using either heat-inactivated or normal fetal calf serum.” left out

melanoma A375 tumors [9] = test: Vacuolation and autophagy markers within tumors of treated mice; assay type: in vivo
From the text: Cytoplasmic vacuolation was clear in tumors from compound 1-treated mice, and the extent of vacuolation was clearly greater at with greater concentrations of compound 1.
To determine whether or not compound 1 injected intraperitoneally was active within the tumor, tumor slices were stained with hematoxylin and eosin to visualize cellular structure.

EC50 [2]: > 10 µM
Ill effects on mice (melanoma A375 tumors [3]; mice weighed each day during injections): no visible ill effects
Ill effects on mice (melanoma A375 cells [4]; mouse weight): no ill effects on mice
SMILES: C1=Nc2ccccc2/C1=C/NNc1nc(Nc2ccccc2)nc(N2CCOCC2)n1 [compound 1]
Efficacy at inhibiting U2OS cell proliferation relative to HCQ or CQ (osteosarcoma U2OS cells [1]): 21 times
Effect on U2OS cells (osteosarcoma U2OS cells [1]; 0.1 μM): reduced the proliferation rate
Efficacy at arresting growth and proliferation relative to HCQ and CQ (osteosarcoma U2OS cells [1]; cancer cells that depend on autophagy but are not addicted): 20 ×
Increase in fraction of yellow puncta (U2OS cells): 4 fold
Puncta that were yellow in merged images (U2OS cells): at least 80%
Expansion of preformed tumors (melanoma A375 tumors [3]; 20 or 40 mg/kg intraperitoneally daily, outbred nude mice): inhibited by compound 1 in a dose dependent manner; also recorded: inhibited growth of tumors
Tumor xenograft formation by pretreated cells (melanoma A375 cells [4]; A375 cells pretreated 8 hours with 10 μM, subcutaneous): decidedly less efficient; also recorded: inhibited their ability to form a tumor
EC50 (embryonic kidney cells): > 10 µM
Efficacy at reducing U2OS viability relative to HCQ or CQ (osteosarcoma U2OS cells [5]): 13 times
Inhibition of proliferation of melanoma A375 cells (melanoma A375 cells [6]): inhibited A375 cell proliferation
Efficacy at inhibiting A375 cell proliferation relative to HCQ or CQ (melanoma A375 cells [6]; plate assays): at least 100 times
Effect on Melanoma A375 cells (melanoma A375 cells [7]): killed
EC50 [8]: > 10 µM
LC3-II and p62 proteins in tumor lysates (melanoma A375 tumors [9]; Western blot): increased levels of LC3-H and p62 proteins
Cytoplasmic vacuolation in tumor slices (melanoma A375 tumors [9]; hematoxylin and eosin): clearly evident
